Measurements reported in article PMC3130785, “Small Compound 6-O-Angeloylplenolin Induces Mitotic Arrest and Exhibits Therapeutic Potentials in Multiple Myeloma” (PLoS ONE, 2011).

Columns and labels:
Assay type in all cases: cell-based, human
[1] = test system: Mad2 bound Cdc20; assay: Immunoprecipitation and Western blotting; conditions: U266 and MM.1S cells; 24 h
Procedure: (§1) Cell pellets were lysed in RIPA buffer containing 50 mM Tris pH 8.0, 150 mM NaCl, 0.1% SDS, 0.5% deoxycholate, 1% NP-40, 1 mM DTT, 1 mM NaF, 1 mM sodium vanadate, and protease inhibitors cocktail (Sigma). For immunoprecipitations, cells were lysed on ice for 15 minutes in RIPA buffer. Lysates were centrifuged. The supernatant was incubated with indicated antibodies overnight, after which protein A/G Plus beads (Santa Cruz Biotechnology) were added and incubated for 3 h. The beads were washed 4 times in RIPA buffer. Then the beads were resuspended in 1× sample buffer and boiled for 3 min. Protein extracts were quantitated and loaded on 8% to 12% sodium dodecyl sulfate polyacrylamide gel, electrophoresed, and transferred to a nitrocellulose membrane (Whatman). The membrane was incubated with primary antibody, washed, and incubated with horseradish peroxidase (HRP)–conjugated secondary antibody (Pierce). Detection was performed by using a chemiluminescent western detection kit (Cell Signaling). […]
(§2) Figure 3 6-OAP accumulates cyclin B1 which is required for mitotic arrest. […] After co-incubation with 6-OAP for 18 h, the cells were then harvested and detected by Leica DMI 400B microscope (D), or analyzed by flow cytometry for the cell cycle distribution (E). To evaluate cell growth, the cells were treated with 6-OAP for indicated time points and analyzed by trypan blue exclusion assay (F). […]

[2] = test system: ubiquitinated cyclin B1 (Ub-cyclin B1); assay: Immunoprecipitation and Western blotting; conditions: U266 and MM.1S; 24 h
Procedure: as §1, §2

[3] = test system: pIκBα and pP65; assay: Western blotting, TNF-α stimulation; conditions: MM.1S; 6-OAP 5 µM 12 h; TNF-α 5 ng/ml
Procedure: as §1
Figure 5 6-OAP overcomes the protective effects of IL-6, IGF-I and BMSCs on MM cells. […] Cell proliferation was assessed by MTT assay. […] Cell proliferation was assessed by MTT assay. *p<.01,** p<.05. […]

CC=C(C)C(=O)OC1C2C(CC(C)C3C=CC(=O)C31C)OC(=O)C2C (stereo not drawn) [6-OAP, 6-O-angeloylplenolin]
Mad2-Cdc20 binding [1]: enhanced the binding affinity | ubiquitinated cyclin B1 [2]: markedly decreased | TNF-α-induced pIκBα and pP65 [3]: inhibited phosphorylation
